Experimental data reported in ChEMBL document CHEMBL1122107, “Structure-antitumor activity relationships of 9-anilinoacridines using pattern recognition” (1982).

Each compound was assayed on L1210 (assay: Tumor cell selectivity determined as maximal percent increase in life span (ILSmax) at LD10 dosage level in L1210 cells).
Format: functional, Mus musculus

In order of falling ILSmax:
1. N=C(N)NCCCS(=O)(=O)Nc1ccc(Nc2c3ccccc3nc3cc([N+](=O)[O-])ccc23)cc1  200%
2. O=[N+]([O-])c1ccc(S(=O)(=O)Nc2ccc(Nc3c4ccccc4nc4cc([N+](=O)[O-])ccc34)cc2)cc1  200%
3. N=C(N)Nc1ccc(NC(=O)Nc2ccc(N=c3c4ccccc4[nH]c4cc([N+](=O)[O-])ccc34)cc2)cc1  200%
4. O=C(O)CCCCCc1ccc(Nc2c3ccccc3nc3ccccc23)cc1  200%
5. NCCCCCc1ccc(NC(=O)Nc2ccc(N=c3c4ccccc4[nH]c4ccccc34)cc2)cc1  170%
6. CN(C)c1ccc(NC(=O)Nc2ccc(Nc3c4ccccc4nc4ccccc34)cc2)cc1  170%
7. COc1cc(NS(C)(=O)=O)ccc1Nc1c2ccccc2nc2cc(C)ccc12  168%
8. CS(=O)(=O)Nc1ccc(Nc2c3ccccc3nc3cc(I)ccc23)cc1  160%
9. CS(=O)(=O)Nc1ccc(Nc2c3ccccc3nc3ccccc23)cn1  141%
10. O=C(O)c1ccc(S(=O)(=O)Nc2ccc(Nc3c4ccccc4nc4ccccc34)cc2)cc1  135%
11. COC(=O)N(c1ccc(Nc2c3ccccc3nc3cc(NC(C)=O)ccc23)cc1)S(C)(=O)=O  125%
12. COc1cc(N)ccc1N=c1c2ccccc2[nH]c2c(C)cccc12  120%
13. COc1cc(NS(C)(=O)=O)ccc1Nc1c2ccccc2nc2ccccc12 [AMSACRINE]  111%
14. CS(=O)(=O)Nc1ccc(Nc2c3ccccc3nc3ccccc23)c(N)c1  105%
15. COc1cc(NS(C)(=O)=O)ccc1Nc1c2ccccc2nc2c(Br)cccc12  100%
16. CS(=O)(=O)Nc1ccc(Nc2c3ccccc3nc3c(N)cccc23)cc1  100%
17. CCCN(C)/N=N/c1ccc2c(Nc3ccc(NS(C)(=O)=O)cc3)c3ccccc3nc2c1  98%
18. CCCCNC(=O)c1cccc2c(Nc3ccc(NS(C)(=O)=O)cc3OC)c3ccccc3nc12  95%
19. CCCCCS(=O)(=O)Nc1ccc(Nc2c3ccccc3nc3c(C(N)=O)cccc23)c(OC)c1  93%
20. CCCC(=O)N(c1ccc(Nc2c3ccc([N+](=O)[O-])cc3nc3c(C)cccc23)cc1)S(C)(=O)=O  85%
21. CS(=O)(=O)Nc1ccc(Nc2c3ccccc3nc3ccccc23)c(O)c1  85%
22. Cc1ccc2c(Nc3ccc(NS(C)(=O)=O)cc3)c3ccccc3nc2c1  85%
23. CCCCS(=O)(=O)Nc1ccc(Nc2c3ccccc3nc3cc(NC(C)=O)ccc23)cc1  83%
24. CNc1ccc2c(Nc3ccc(NS(C)(=O)=O)cc3OC)c3ccccc3nc2c1  83%
25. NC(=O)CCCCc1ccc(Nc2c3ccccc3nc3ccccc23)cc1  82%
26. NC(Cc1ccc(NC(=O)Nc2ccc(N=c3c4ccccc4[nH]c4cc([N+](=O)[O-])ccc34)cc2)cc1)C(=O)O (configuration not stated)  80%
27. NCCCCCS(=O)(=O)Nc1ccc(Nc2c3ccccc3nc3cc([N+](=O)[O-])ccc23)cc1  80%
28. CCCCCS(=O)(=O)Nc1ccc(Nc2c3ccccc3nc3ncccc23)c(OC)c1  76%
29. COc1cc(NS(C)(=O)=O)ccc1Nc1c2ccccc2nc2cc([N+](=O)[O-])ccc12  76%
30. CCOC(=O)NNc1ccc(Nc2c3ccccc3nc3ccccc23)cc1  75%
31. COc1ccc2c(Nc3ccc(NS(C)(=O)=O)cc3)c3cccc(C)c3nc2c1  75%
32. O=C(O)CCCCCCc1ccc(Nc2c3ccccc3nc3ccccc23)cc1  74%
33. CCC(=O)N(c1ccc(Nc2c3ccc([N+](=O)[O-])cc3nc3c(C)cccc23)c(OC)c1)S(C)(=O)=O  72%
34. COc1cc(NS(C)(=O)=O)ccc1Nc1c2ccc(C)cc2nc2c(OC)cccc12  72%
35. N#CC(C#N)=Cc1ccc(Nc2c3ccccc3nc3ccccc23)cc1  65%
36. O=S(=O)(CCl)Nc1ccc(Nc2c3ccccc3nc3ccccc23)cc1  55%
37. COc1cc(NS(C)(=O)=O)ccc1Nc1c2ccccc2nc2cccc([N+](=O)[O-])c12  50%
38. CCOC(=O)N1CCN(C(=O)Nc2ccc(Nc3c4ccccc4nc4ccccc34)cc2)CC1  50%
39. CCCCCNS(=O)(=O)c1ccc(N=c2c3ccccc3[nH]c3cc(N)ccc23)cc1  50%
40. CCCCC(=O)N(c1ccc(Nc2c3ccccc3nc3c(C)cccc23)c(OC)c1)S(C)(=O)=O  50%
41. COc1ccc(Nc2c3ccccc3nc3ccccc23)c(NS(C)(=O)=O)c1  50%
42. Nc1cccc(Nc2c3ccccc3nc3ccccc23)c1  50%
43. CCCCCCCCS(=O)(=O)Nc1ccc(Nc2c3ccccc3nc3ccccc23)c(OC)c1  40%
44. Nc1ccc(Nc2c3ccccc3nc3cc([N+](=O)[O-])ccc23)cc1  30%
45. COc1cc(/C=C/C(=O)O)ccc1Nc1c2ccccc2nc2ccccc12  27%
46. N=C(N)NCCCCS(=O)(=O)Nc1ccc(Nc2c3ccccc3nc3cc(Cl)ccc23)cc1  25%
47. NCCc1ccc(Nc2c3ccccc3nc3ccccc23)cc1  25%
48. NCCc1ccc(Nc2c3ccccc3nc3cc([N+](=O)[O-])ccc23)cc1  25%
49. Nc1ccc(Nc2c3ccccc3nc3ccccc23)cc1  25%
50. CCCCCCNc1ccc(Nc2c3ccccc3nc3ccccc23)cc1  25%
51. c1ccc2c(Nc3ccc(N4CCNCC4)cc3)c3ccccc3nc2c1  25%
52. NCCS(=O)(=O)Nc1ccc(Nc2c3ccccc3nc3ccccc23)cc1  25%
53. Cc1cccc2nc3ccccc3c(Nc3ccc(NS(C)(=O)=O)cc3)c12  25%
54. O=C(O)/C=C\c1ccccc1Nc1c2ccccc2nc2ccccc12  25%
55. CN(c1ccccc1Nc1c2ccccc2nc2ccccc12)S(C)(=O)=O  25%
56. Fc1ccccc1Nc1c2ccccc2nc2ccccc12  25%
57. CC(C)(C)c1ccccc1Nc1c2ccccc2nc2ccccc12  25%
